# Experimental data from PMC5041986 (Oncotarget, 2016).
# Legend:
# RT-112 cells = experiment: Flow cytometric cell cycle analysis; format: cell-based; details: flow cytometry
# Procedure: Cells were seeded in 6-well plates and treated with DMSO or indicated compounds at various concentrations for the indicated times. After treatment, the cells were harvested by trypsinization, washed with PBS, and the pellets were fixed in ice-cold 70% ethanol at -20°C overnight. After centrifugation, the cells were incubated for 15 minutes at room temperature in 0.1 mL of phosphate-citric acid buffer (0.2 M NaHPO4, 0.1 M citric acid, and pH 7.8) and then stained with propidium iodide staining buffer containing Triton X-100 (0.1%, v/v), RNase A (100 μg/mL), and propidium iodide (80 μg/mL) for 30 minutes in the dark. DNA contents were analyzed by flow cytometry with CellQuest software (Becton Dickinson, Mountain View, CA, USA). The results were obtained from three independent experiments and the representative data were shown in Supplementary Figure S8 and S9.
# HUVEC = experiment: MTT cell viability assay; format: cell-based; details: Homo sapiens, HUVEC (normal cell), 72 h
# Procedure: Cells were seeded in 96-well plates and exposed to DMSO, or indicated compounds for 72 hours. Cell viability was assessed using the 3-(4,5-dimethylthiazol-2-yl)-2,5-diphenyltetrazolium bromide (MTT) assay as described previously [46]. Briefly, 100 μl of 0.5 mg/ml MTT were added to each well and incubated at 37°C for 1 hour. After that, 100 μl of extraction reagents (0.1 M sodium acetate buffer for suspension cells or DMSO for attached cells) were added to each well to lyse cells and absorbance at 550 nm was measured. Cell viability was expressed as the percentage of surviving cells in drug-treated versus DMSO-treated control cells (which was considered as 100% viability).
compound,measurement,setting,value
"CCN1CCN(c2ccc(Nc3cc(N(C)C(=O)Nc4c(Cl)c(OC)cc(OC)c4Cl)ncn3)cc2)CC1 [BGJ-398, 3-(2,6-dichloro-3,5-dimethoxy-phenyl)-1-{6-[4-(4-ethyl-piperazin-1-yl)-phenylamino]-pyrimidin-4-yl}-1-methyl-urea]",G0/G1 cell cycle arrest,"RT-112 cells; 4 μM, 24 h",also observed
same,accumulation of the sub-G1 phase (apoptotic cell death),RT-112 cells; 48 h to 72 h,induced pronounced apoptosis
same,IC50,HUVEC,50 nM
